Assay results reported in PubChem BioAssay AID720671 (NMMLSC, 2013).
The source made the active and inactive calls. No rule for the calls is given here.

What follows are compounds tested against Botulinum neurotoxin type F light chain protease (Clostridium botulinum) (assay: inhibition of botulinum toxin F protease cleavage – biochemical, multiplex microsphere, Powder Set 03, dose response (AID 720671)). Details: multiplex microsphere protease cleavage assay, BoNT/F LC.
For CCCOC(=O)Nc1ccc2nc(-c3cccs3)c(-c3cccs3)nc2c1, the EC50 was > 20 µM (inactive). In the case of O=C(Nc1ccc2nc(-c3ccccc3)c(-c3ccccc3)nc2c1)C1CC1, the EC50 is reported as > 20 µM (inactive). With CCNC(=S)Nc1ccc2nc(-c3ccccc3)c(-c3ccccc3)nc2c1 the EC50 was > 20 µM (inactive). CC(C)OC(=O)Nc1ccc2nc(-c3cccs3)c(-c3cccs3)nc2c1 was tested, and the EC50 was > 20 µM (inactive). For COc1ccc(-c2nc3nc(-c4ccc(OC(F)(F)F)cc4)cn3nc2-c2ccc(OC)cc2)cc1, the EC50 was > 20 µM (inactive). In the case of Fc1ccc(-c2nc3nc(-c4ccc(OC(F)(F)F)cc4)cn3nc2-c2ccc(F)cc2)cc1, the EC50 is reported as > 20 µM (inactive). In the case of COC(=O)Nc1ccc2nc(-c3ccccc3)c(-c3ccccc3)nc2c1, the EC50 is reported as > 20 µM (inactive). In the case of N#Cc1ccc(-c2cn3nc(-c4ccccc4)c(-c4ccccc4)nc3n2)cc1, the EC50 is reported as > 20 µM (inactive). For CC(Oc1ccccc1)C(=O)Nc1ccc2nc(-c3ccccc3)c(-c3ccccc3)nc2c1 (configuration not stated), the EC50 was > 20 µM (inactive). With COc1ccc(-c2cn3nc(-c4ccccc4)c(-c4ccccc4)nc3n2)c(OC)c1 the EC50 was > 20 µM (inactive). With Fc1ccc(-c2cn3nc(-c4ccccc4)c(-c4ccccc4)nc3n2)cc1 the EC50 was > 20 µM (inactive). With Fc1ccc(-c2nc3nc(-c4ccccc4)cn3nc2-c2ccc(F)cc2)cc1 the EC50 was 8.9 µM. For O=C(Nc1ccc2nc(-c3cccs3)c(-c3cccs3)nc2c1)C1CCCC1, the EC50 was > 20 µM (inactive). In the case of COc1ccc(-c2cn3nc(-c4ccc(OC)cc4)c(-c4ccc(OC)cc4)nc3n2)cc1, the EC50 is reported as > 20 µM (inactive). Compound COc1ccccc1-c1cn2nc(-c3ccc(F)cc3)c(-c3ccc(F)cc3)nc2n1 has an EC50 of 5.7 µM. With CCCCOC(=O)Nc1ccc2nc(-c3ccccc3)c(-c3ccccc3)nc2c1 the EC50 was > 20 µM (inactive). With CC(C)(C)NC(=O)Nc1ccc2nc(-c3ccccc3)c(-c3ccccc3)nc2c1 the EC50 was > 20 µM (inactive). With O=C(Nc1ccc2nc(-c3ccccc3)c(-c3ccccc3)nc2c1)OCc1ccccc1 the EC50 was > 20 µM (inactive). For CC(C)CS(=O)(=O)Nc1ccc2nc(-c3cccs3)c(-c3cccs3)nc2c1, the EC50 was > 20 µM (inactive). For COc1ccc(-c2cn3nc(-c4ccc(F)cc4)c(-c4ccc(F)cc4)nc3n2)c(OC)c1, the EC50 was 1.5 µM. COc1cccc(-c2cn3nc(-c4ccc(F)cc4)c(-c4ccc(F)cc4)nc3n2)c1 showed an EC50 of 7.9 µM. Cc1ccc(-c2nc3nc(-c4ccc(C#N)cc4)cn3nc2-c2ccc(C)cc2)cc1 gave an EC50 of 11.2 µM. In the case of Fc1cccc(-c2cn3nc(-c4ccccc4)c(-c4ccccc4)nc3n2)c1, the EC50 is reported as 18 µM. Work on COc1ccc(-c2nc3nc(-c4cccc(F)c4)cn3nc2-c2ccc(OC)cc2)cc1 yielded an EC50 of 4.4 µM. For CCCS(=O)(=O)Nc1ccc2nc(-c3cccs3)c(-c3cccs3)nc2c1, the EC50 was > 20 µM (inactive). Cc1ccc(-c2cn3nc(-c4ccc(F)cc4)c(-c4ccc(F)cc4)nc3n2)cc1 was tested, and the EC50 was > 20 µM (inactive). In the case of COc1ccc(-c2nc3nc(-c4ccccc4OC)cn3nc2-c2ccc(OC)cc2)cc1, the EC50 is reported as 5.2 µM. For Cc1ccc(-c2cn3nc(-c4ccc(C)cc4)c(-c4ccc(C)cc4)nc3n2)cc1, the EC50 was > 20 µM (inactive). Cc1ccc(-c2nc3nc(-c4ccccc4)cn3nc2-c2ccc(C)cc2)cc1 showed an EC50 of 5.4 µM. In the case of Cc1ccc(-c2nc3nc(-c4ccc(S(C)(=O)=O)cc4)cn3nc2-c2ccc(C)cc2)cc1, the EC50 is reported as > 20 µM (inactive). In the case of CC(C)NC(=O)Nc1ccc2nc(-c3cccs3)c(-c3cccs3)nc2c1, the EC50 is reported as > 20 µM (inactive). CCCOC(=O)Nc1ccc2nc(-c3ccccc3)c(-c3ccccc3)nc2c1 was tested, and the EC50 was > 20 µM (inactive). CCCS(=O)(=O)Nc1ccc2nc(-c3ccccc3)c(-c3ccccc3)nc2c1 was tested, and the EC50 was > 20 µM (inactive). COc1ccc(-c2cn3nc(-c4ccc(F)cc4)c(-c4ccc(F)cc4)nc3n2)cc1 was tested, and the EC50 was > 20 µM (inactive). With CCCNC(=O)Nc1ccc2nc(-c3ccccc3)c(-c3ccccc3)nc2c1 the EC50 was > 20 µM (inactive). In the case of O=C(Nc1ccc2nc(-c3ccccc3)c(-c3ccccc3)nc2c1)C1CCC1, the EC50 is reported as > 20 µM (inactive). In the case of COc1ccc(-c2nc3nc(-c4cccc(OC)c4)cn3nc2-c2ccc(OC)cc2)cc1, the EC50 is reported as > 20 µM (inactive). For CS(=O)(=O)c1ccc(-c2cn3nc(-c4ccccc4)c(-c4ccccc4)nc3n2)cc1, the EC50 was > 20 µM (inactive). COc1cccc(-c2cn3nc(-c4ccc(C)cc4)c(-c4ccc(C)cc4)nc3n2)c1 was tested, and the EC50 was > 20 µM (inactive). CC(C)NC(=O)Nc1ccc2nc(-c3ccccc3)c(-c3ccccc3)nc2c1 was tested, and the EC50 was > 20 µM (inactive). With N#Cc1ccc(-c2cn3nc(-c4ccc(F)cc4)c(-c4ccc(F)cc4)nc3n2)cc1 the EC50 was > 20 µM (inactive). With O=C(Nc1ccc2nc(-c3cccs3)c(-c3cccs3)nc2c1)NC1CCCC1 the EC50 was > 20 µM (inactive). CCNC(=O)Nc1ccc2nc(-c3ccccc3)c(-c3ccccc3)nc2c1 was tested, and the EC50 was > 20 µM (inactive). For O=C(Nc1ccc2nc(-c3ccccc3)c(-c3ccccc3)nc2c1)C1CCCCC1, the EC50 was > 20 µM (inactive). With CS(=O)(=O)c1ccc(-c2cn3nc(-c4ccc(F)cc4)c(-c4ccc(F)cc4)nc3n2)cc1 the EC50 was > 20 µM (inactive). For CCCCOC(=O)Nc1ccc2nc(-c3cccs3)c(-c3cccs3)nc2c1, the EC50 was > 20 µM (inactive). For COc1ccc(-c2nc3nc(-c4ccc(S(C)(=O)=O)cc4)cn3nc2-c2ccc(OC)cc2)cc1, the EC50 was > 20 µM (inactive). Cc1ccc(-c2nc3nc(-c4ccc(OC(F)(F)F)cc4)cn3nc2-c2ccc(C)cc2)cc1 was tested, and the EC50 was > 20 µM (inactive). In the case of CC(C)CS(=O)(=O)Nc1ccc2nc(-c3ccccc3)c(-c3ccccc3)nc2c1, the EC50 is reported as > 20 µM (inactive). With O=C(Nc1ccc2nc(-c3cccs3)c(-c3cccs3)nc2c1)C1CC1 the EC50 was > 20 µM (inactive). With COc1ccccc1-c1cn2nc(-c3ccc(C)cc3)c(-c3ccc(C)cc3)nc2n1 the EC50 was > 20 µM (inactive). Fc1ccc(-c2cn3nc(-c4ccc(F)cc4)c(-c4ccc(F)cc4)nc3n2)cc1 was tested, and the EC50 was 4 µM. In the case of COC(=O)Nc1ccc2nc(-c3cccs3)c(-c3cccs3)nc2c1, the EC50 is reported as > 20 µM (inactive). For COc1ccc(-c2nc3nc(-c4ccc(OC)cc4OC)cn3nc2-c2ccc(OC)cc2)cc1, the EC50 was > 20 µM (inactive). COc1ccccc1-c1cn2nc(-c3ccccc3)c(-c3ccccc3)nc2n1 was tested, and the EC50 was > 20 µM (inactive). In the case of O=C(Nc1ccc2nc(-c3cccs3)c(-c3cccs3)nc2c1)OCc1ccccc1, the EC50 is reported as > 20 µM (inactive). With Cc1ccc(-c2nc3nc(-c4ccc(F)cc4)cn3nc2-c2ccc(C)cc2)cc1 the EC50 was > 20 µM (inactive). COc1ccc(-c2cn3nc(-c4ccc(C)cc4)c(-c4ccc(C)cc4)nc3n2)cc1 was tested, and the EC50 was > 20 µM (inactive). With FC(F)(F)Oc1ccc(-c2cn3nc(-c4ccccc4)c(-c4ccccc4)nc3n2)cc1 the EC50 was > 20 µM (inactive). With COc1cccc(-c2cn3nc(-c4ccccc4)c(-c4ccccc4)nc3n2)c1 the EC50 was > 20 µM (inactive). In the case of Clc1ccc(-c2cn3nc(-c4ccccc4)c(-c4ccccc4)nc3n2)c(Cl)c1, the EC50 is reported as > 20 µM (inactive). In the case of CC(=O)Nc1ccc2nc(-c3ccccc3)c(-c3ccccc3)nc2c1, the EC50 is reported as > 20 µM (inactive). For Fc1ccc(-c2nc3nc(-c4cccc(F)c4)cn3nc2-c2ccc(F)cc2)cc1, the EC50 was 5.7 µM. With CCOC(=O)Nc1ccc2nc(-c3cccs3)c(-c3cccs3)nc2c1 the EC50 was > 20 µM (inactive). With O=C(Nc1ccc2nc(-c3ccccc3)c(-c3ccccc3)nc2c1)NC1CCCC1 the EC50 was > 20 µM (inactive). With CC(C)(C)C(=O)Nc1ccc2nc(-c3ccccc3)c(-c3ccccc3)nc2c1 the EC50 was > 20 µM (inactive). CCS(=O)(=O)Nc1ccc2nc(-c3ccccc3)c(-c3ccccc3)nc2c1 was tested, and the EC50 was > 20 µM (inactive). For O=C(Nc1ccc2nc(-c3ccccc3)c(-c3ccccc3)nc2c1)C1CCCC1, the EC50 was > 20 µM (inactive). O=S(=O)(Nc1ccc2nc(-c3cccs3)c(-c3cccs3)nc2c1)C1CC1 was tested, and the EC50 was > 20 µM (inactive). In the case of CCNC(=O)Nc1ccc2nc(-c3cccs3)c(-c3cccs3)nc2c1, the EC50 is reported as > 20 µM (inactive). COc1ccc(-c2nc3nc(-c4ccc(C)cc4)cn3nc2-c2ccc(OC)cc2)cc1 was tested, and the EC50 was > 20 µM (inactive). For CCOC(=O)Nc1ccc2nc(-c3ccccc3)c(-c3ccccc3)nc2c1, the EC50 was > 20 µM (inactive). For CCC(=O)Nc1ccc2nc(-c3ccccc3)c(-c3ccccc3)nc2c1, the EC50 was > 20 µM (inactive). For CC(C)OC(=O)Nc1ccc2nc(-c3ccccc3)c(-c3ccccc3)nc2c1, the EC50 was > 20 µM (inactive). For COc1ccc(-c2nc3nc(-c4ccc(F)cc4)cn3nc2-c2ccc(OC)cc2)cc1, the EC50 was > 20 µM (inactive). With COc1ccc(-c2cn3nc(-c4ccc(C)cc4)c(-c4ccc(C)cc4)nc3n2)c(OC)c1 the EC50 was > 20 µM (inactive). In the case of COc1ccc(-c2nc3nc(-c4ccc(C#N)cc4)cn3nc2-c2ccc(OC)cc2)cc1, the EC50 is reported as > 20 µM (inactive). For Cc1ccc(-c2nc3nc(-c4cccc(F)c4)cn3nc2-c2ccc(C)cc2)cc1, the EC50 was > 20 µM (inactive). CCC(=O)Nc1ccc2nc(-c3cccs3)c(-c3cccs3)nc2c1 was tested, and the EC50 was > 20 µM (inactive). O=C(Nc1ccc2nc(-c3cccs3)c(-c3cccs3)nc2c1)C1CCC1 was tested, and the EC50 was > 20 µM (inactive). In the case of O=S(=O)(Nc1ccc2nc(-c3ccccc3)c(-c3ccccc3)nc2c1)C1CC1, the EC50 is reported as > 20 µM (inactive). COc1ccc(-c2nc3nc(-c4ccccc4)cn3nc2-c2ccc(OC)cc2)cc1 was tested, and the EC50 was > 20 µM (inactive).
